Reference: patent US8247609B2, “Aminoacid derivatives containing a disulfanyl group in the form of mixed disulfanyl and aminopeptidase N inhibitors” (Pharamleads, priority 2005, dated 2012)
Where two headings read alike, the source gives them in different places. Marks after values point to notes of the source that are not given here.

Legend:
male OF1 mice [1] = test: Hot plate test (52° C., jump latency) in mice; type: in vivo, mouse; settings: for ED50: Mus musculus
Experimental: Hot plate test: this test relates to the licking and jumping reflex in mice on a plate heated at 52° C. (measurement of jump latency in the examples given). The results are expressed in % of maximum possible effect (% MPE), i.e., expressed as a percentage of analgesia, using the following equation:
Maximum latency time=240 seconds.
The results are expressed in term of mean±SEM. The differences observed are considered significant when the values of p are less than 0.05. The test used is an ANOVA test with a multiple comparison test.
Compound 15 is dissolved in a water/mannitol mixture (50 mg/ml). Jump latency times are measured 10 min after the injections by intravenous route.
Compound 15 is dissolved in a ethanol/Cremophor® EL/water mixture. Jump latency times are measured 10 min after intravenous injection.
Compound 15 is dissolved in an ethanol/PEG400/water 10/40/50 mixture.
Compounds 15 and A are dissolved in an ethanol/Cremophor EL/water 10/10/80 mixture. Jump latency times are measured 10 min after intravenous injection.
The analgesia produced by morphine or compound 15 in mice (male OF1) in the hot plate test (52° C.) was measured. Morphine in H2O/NaCl, 9/1000) or compound 15 dissolved in the vehicle EtOH/Cremophor El/water (10/10/80) is injected by IV. The results are measured 10 minutes after injection and latency time is 240 seconds (equation given in examples 15 and 17).
The analgesia produced by Δ^9 THC in mice (male OF1) in the plate hot test (52° C.) was measured. Δ^9 THC, dissolved in the vehicle EtOH/Cremophor EL/water (10/10/80), is injected by IV route. The results are measured 10 minutes after injection and latency time is 240 seconds (equation given in examples 15 and 17).
This test relates to the licking and jumping reflex in mice on a plate heated at 52° C. The results are expressed in % of maximum possible effect (% MPE), i.e., expressed as a percentage of analgesia, using the following equation:
Maximum latency time=240 s.
The mice weigh 25-30 grams.
Jump latency is measured 10 minutes after intravenous injection.

Log Kow = type: physicochemical
Solubility in solvents = type: physicochemical
[2] = system: mice inoculated in their right paw with NCTC 2472 cells; test: Osteosarcoma-induced thermal hyperalgesia, unilateral hot plate test; type: in vivo, mouse; settings: for Antihyperalgesic effect when administered alone: compound 15 12.5 mg/kg 20 min before testing, or Gabapentin 6.25 mg/kg 60 min before testing
Description: The comparison and possible facilitation of compound 15 analgesic effect by Gabapentin was investigated on the animal model of bone cancer induced by intraosteal inoculation of NCTC2472 tumor cells (Honoré P. et al., Neuroscience 98 (2000), 585-588 Mendez L. et al. J. Neurosci. Methods 113 (2002), 91-97).
The methods used to measure the analgenisc effects (antihyperalgesia and allodynia) of various compounds of this animal model have been described in details and are used (Menendez L. et al. Brain Res. 969 (2003), 102-109) in these series of experiments.
Osteosarcoma-induced thermal hyperalgesia measured by the unilateral hot plate test was inhibited by the oral administration of compound 15 (25 mg/kg). This inhibitory effect peaked 20-40 min after compound 15 administration, disappearing at time 60 (FIG. 4A).
At this concentration the antagonist is unable to enter the brain supporting a peripheral analgesic effects of compound 15. ** p≦0.01. […]

male OF1 mice [3] = test: Hot plate test (52° C., jump latency) in mice; type: in vivo, mouse; settings: after administration per os of 200 m/kg (FIG. 2b)
[4] = system: rat (male Sprague Dawley) with an inflamed paw; test: Vocalization threshold on paw pressure, carrageenan-inflamed paw; type: in vivo; settings: 100 mg/kg per os, 180 min after carrageenan, measured 20 min after administration
Experimental: b) Antinociceptive effect of compound 15 (100 mg/kg par os) on vocalization threshold when pressure is applied to the paw of a rat (male Sprague Dawley) with an inflamed paw, inflammation being induced by intraplantar injection of carrageenan.
Compound 15 and a vehicle (ethanol/polyethylene glycol (PEG) 400/water, 10/40/50) are administered 180 min after intraplantar injection of carrageenan (1% in saline solution).
The baseline for vocalization threshold when pressure is applied to the paw is measured before inflammation (B) and for the inflamed paw 20 min after injection of compound 15 or the vehicle. The results are given in table 3 and are expressed as mean±SEM, n=10. The differences observed are considered significant when the values of p are less than 0.05.

[5] = 1 mg/kg IV, 10 min after injection (Table 6)
[6] = 2.5 mg/kg IV, 10 min after injection (Table 6)
[7] = 5 mg/kg IV, 10 min after injection (Table 6)
[8] = 5 mg/kg IV, ethanol/Cremophor EL/water 10/10/80, 10 min after injection (Table 5)

Molecule: CN1CC[C@]23c4c5ccc(O)c4O[C@H]2[C@@H](O)C=C[C@H]3[C@H]1C5 [morphine, reference compound]
- % analgesia (male OF1 mice [1]; [5]): 45.5 ± 4.5 %
- % analgesia (male OF1 mice [1]; [6]): 66 ± 6.0 %
- % analgesia (male OF1 mice [1]; [7]): 100*** %
- ED50 (male OF1 mice [1]; iv, 10 min, read-out: ED50 (analgesic response)): 1.3 ± 0.2 mg/kg

Molecule: CSCCC(N)CSSCC(Cc1ccsc1)C(=O)NC(C)C(=O)OCCS(C)(=O)=O.O=C(O)C(F)(F)F (centres unmarked) [Compound 12b, 1-(2-(1-(2-methanesulfonylethoxycarbonyl)-ethylcarbamoyl)-3-thiophen-3-ylpropyldisulfanylmethyl)-3-methylsulfanylpropyl-ammonium trifluoroacetate]
- Log Kow (Log Kow): −0.13

Molecule: CSCCC(N)CSSCC(Cc1ccsc1)C(=O)NC(C)C(=O)OCC1OC(O)C(O)C(O)C1O.O=C(O)C(F)(F)F (centres unmarked) [Compound 12h, 1-(2-(1-(3,4,5,6-tetrahydroxytetrahydropyran-2-ylmethoxycarbonyl)ethylcarbamoyl)-3-thiophen-3-yl-propyldisulfanylmethyl)-3-methylsulfanylpropyl-ammonium trifluoroacetate]
- Log Kow (Log Kow): −1.15

Molecule: CSCCC(N)CSSCC(Cc1ccccc1)C(=O)NC(C(=O)OC(COC(C)=O)COC(C)=O)C(C)O.O=C(O)C(F)(F)F (centres unmarked) [Compound 12j, 1-(2-(1-(2-acetoxy-1-acetoxymethyl-thoxycarbonyl)-2-hydroxypropylcarbamoyl)-3-phenylpropyldisulfanylmethyl)-3-methylsulfanylpropyl-ammonium trifluoroacetate]
- Log Kow (Log Kow): 0.44

Molecule: CSCCC(N)CSSCC(Cc1ccsc1)C(=O)NC(C)C(=O)OCC(COC(C)=O)OC(C)=O.O=C(O)C(F)(F)F (centres unmarked) [Compound 12a, 1-(2-(1-(2,3-diacetoxypropoxycarbonyl)-ethylcarbamoyl)-3-thiophen-3-ylpropyldisulfanylmethyl)-3-methylsulfanylpropyl-ammonium trifluoroacetate]
- Log Kow (Log Kow): 1.31

Molecule: CSCCC(N)CSSCC(Cc1ccsc1)C(=O)NC(C)C(=O)OC(COC(C)=O)COC(C)=O.O=C(O)C(F)(F)F (centres unmarked) [Compound 12f, 1-(2-(1-(2-acetoxy-1-acetoxymethylethoxycarbonyl)-ethylcarbamoyl)-3-thiophen-3-ylpropyldisulfanylmethyl)-3-methylsulfanylpropyl-ammonium trifluoroacetate]
- Log Kow (Log Kow): 1.31

Molecule: 1-(2-(1-ethoxycarbonylmethyloxycarbonylethylcarbamoyl)-3-thiophen-3-yl-propyldi sulfanylmethyl)-3-methylsulfanylpropyl-ammonium trifluoroacetate [Compound 12d]
- Log Kow (Log Kow): 1.35

Molecule: CSCCC(N)CSSCC(Cc1ccccc1)C(=O)NC(Cc1ccccc1)C(=O)OCc1ccccc1 (centres unmarked) [Compound A, reference compound]
- Solubility in aqueous or hydrophilic solvents (Solubility in solvents): poorly soluble
- % analgesia (male OF1 mice [1]; [8]): 51.1 ± 7.6 %

Molecule: CSCCC(N)CSSCC(Cc1ccsc1)C(=O)NC(C)C(=O)OC(CO)CO.O=C(O)C(F)(F)F (centres unmarked) [Compound 12g, 1-(2-(1-(2-hydroxy-1-hydroxymethylethoxycarbonyl)-ethylcarbamoyl)-3-thiophen-3-ylpropyldisulfanylmethyl)-3-methylsulfanylpropyl-ammonium trifluoroacetate]
- Log Kow (Log Kow): −0.29

Molecule: NCC1(CC(=O)O)CCCCC1 [Gabapentin]
- Antihyperalgesic effect ([2]; 6.25 mg/kg i.p., 60 minutes after injection (FIG. 6B)): subeffective
- Antihyperalgesic effect ([2]; 12.5 mg/kg i.p., 60 minutes after injection): significant antihyperalgesic effect
- Antihyperalgesic effect ([2]; 25 mg/kg i.p., 40 and 60 min after injection (FIG. 6A)): clear antihyperalgesic effect
- Withdrawal latencies ([2]; 25 mg/kg i.p., 20 min after administration): No modification of withdrawal latencies
- Antihyperalgesic effect ([2]; 25 mg/kg i.p., 60 minutes after injection): completely suppressed the hyperalgesic effect
- Withdrawal latencies of contralateral paws ([2]; 6.25-25 mg/kg i.p.): None of these doses of Gabapentin modified the withdrawal latencies of contralateral paws
- Antihyperalgesic effect when administered alone [2]: do not produce any antihyperalgesic effect

Molecule: CCOC(=O)OC(C)OC(=O)CNC(=O)C(CSSC[C@@H](N)CCSC)Cc1ccccc1 (some centres unmarked) [Compound 15]
- Solubility in ethanol/Tween®/water solvents (Solubility in solvents): soluble
- Persistence of analgesic effect (male OF1 mice [3]): at least two hours
- % analgesia (male OF1 mice [1]; [5]): 46.4 ± 5.6 %
- % analgesia (male OF1 mice [1]; [6]): 56.3 ± 6.9 %
- % analgesia (male OF1 mice [1]; 2.5 mg/kg IV, ethanol/Cremophor EL/water, 10 min after injection): 56.2 ± 6.9 %
- % analgesia (male OF1 mice [1]; 2.5 mg/kg IV, ethanol/Tween 20/water, 10 min after injection): 48.4 ± 10.2 %
- % analgesia (male OF1 mice [1]; 2.5 mg/kg IV, ethanol/Tween 80/water, 10 min after injection): 44.7 ± 6.2 %
- % analgesia (male OF1 mice [1]; [7]): 87.6 ± 4.6 %
- % analgesia (male OF1 mice [1]; [8]): 87.6 ± 4.6 %
- % analgesia (male OF1 mice [1]; 10 mg/kg IV, water/mannitol vehicle, 10 min after injection, male mice): 33.4 ± 7.5 %
- % analgesia (male OF1 mice [1]; 20 mg/kg IV, water/mannitol vehicle, 10 min after injection, male mice): 59.2 ± 9.6 %
- % analgesia (male OF1 mice [1]; 40 mg/kg IV, water/mannitol vehicle, 10 min after injection, male mice): 90.2 ± 7.0 %
- ED50 (male OF1 mice [1]; 10 min, IV, ethanol/Cremophor EL/water, 10 min after injection (FIG. 1), read-out: ED50 (analgesic response)): 1.9 ± 0.4 mg/kg
- ED50 (male OF1 mice [1]; 10 min, IV, water/mannitol vehicle, 10 min after injection, read-out: Effective dose 50, ED50): 16.1 mg/kg
- ED50 (male OF1 mice [1]; per os 20 min before test, ethanol/PEG400/water 10/40/50 (FIG. 2a), read-out: ED50 (analgesic effect)): 135 mg/kg
- Time at which inhibitory effect disappears ([2]; 25 mg/kg oral): 60
- Time of peak inhibitory effect after administration ([2]; 25 mg/kg oral): 20 to 40 min
- Osteosarcoma-induced thermal hyperalgesia ([2]; 25 mg/kg oral (FIG. 4A)): inhibited
- Antihyperalgesic effect in presence of naloxone-methiodide ([2]; 25 mg/kg p.o. 20 min before testing, naloxone-methiodide 2 mg/kg i.p. 20 min before testing (FIG. 5)): completely inhibited
- Effect on thermal latencies, inoculated versus control paws ([2]; 25 mg/kg p.o., 20 min after administration (FIG. 4B)): exclusively increases the latencies measured in the inoculated right paws
- Antihyperalgesic effect when administered alone [2]: do not produce any antihyperalgesic effect
- Vocalization threshold [4]: 292.5 ± 20.1 g

Molecule: CCOC(=O)OC(C)OC(=O)C(NC(=O)C(CSSCC(N)CCSC)Cc1ccccc1)C(C)O.O=C(O)C(F)(F)F (centres unmarked) [Compound 12i]
- Log Kow (Log Kow): 0.76

Molecule: CCCCCc1cc(O)c2c(c1)OC(C)(C)[C@@H]1CCC(C)=C[C@@H]21 [Δ^9 THC, Δ^9 tetrahydrocannabinol, reference compound]
- % analgesia (male OF1 mice [1]; 0.188 mg/kg IV, EtOH/Cremophor EL/water, 10 min after injection): 0.4 ± 3.9%
- % analgesia (male OF1 mice [1]; 0.375 mg/kg IV, EtOH/Cremophor EL/water, 10 min after injection): 18.2 ± 6.4%
- % analgesia (male OF1 mice [1]; 0.75 mg/kg IV, EtOH/Cremophor EL/water, 10 min after injection): 41.2 ± 12.7 %
- % analgesia (male OF1 mice [1]; 1.5 mg/kg IV, EtOH/Cremophor EL/water, 10 min after injection): 57.2 ± 10.9 %

Molecule: CCOC(=O)OC(C)OC(=O)C(C)NC(=O)C(CSSCC(N)CCSC)Cc1ccsc1.O=C(O)C(F)(F)F (centres unmarked) [Compound 12c]
- Log Kow (Log Kow): 1.63

Molecule: CCOC(=O)OC(C)OC(=O)CNC(=O)C(CSSCC(N)CCSC)Cc1ccccc1.O=C(O)C(F)(F)F (centres unmarked) [Compound 12k]
- Log Kow (Log Kow): 1.39

Molecule: 1-(2-(1-(1-ethoxycarbonyloxyethoxycarbonyl)-2-hydroxypropylcarbamoyl)-3-thiophen-3-ylpropyldisulfanylmethyl)-3-methylsulfanylpropyl-ammonium trifluoroacetate [Compound 12e]
- Log Kow (Log Kow): 0.76
